US8815891B2, “Tricyclic derivative or pharmaceutically acceptable salts thereof, preparation method thereof, and pharmaceutical composition containing the same” (Je Il Pharmaceutical Co., Ltd., priority 2008, dated 2014)
Where a name gives a salt, the structure may show the parent alone.

These molecules were tested against PARP-1 enzyme (Homo sapiens (Human), UniProt P09874) (assay: Poly(ADP-ribose)polymerase [PARP-1] enzyme inhibitory activity (Trevigen PARP Assay kit)). Settings: not given.
Assay type: biochemical
Method: The activity of the compounds according to the present invention to inhibit the PARP-1 enzyme was examined using a PARP Assay kit (4671-096-K) purchased from Trevigen. The assay was performed following a modified previously reported method by Lee et al [Methods Find, Exp. Clin. Pharmacol., 27, 617-622, 2005].
Histone was coated on 384-well plate, which is a small volume PS plate (784101) of Greiner Bio-One, and left at 25° C. for 2 hours. After that, the plate was rinsed four times with PBS (7.5 mM Na2HPO4, 2.5 mM NaH2PO4, 145 mM NaCl, pH 7.4), and in order to prevent non-specific reaction, the Strep-diluent (provided from kit of Trevigen) was added and left at 25° C. for one hour. After one hour, the plate was again rinsed with PBS four times, and the compounds of the Examples in various concentrations were put into reactant containing PARP-1 enzyme (0.12 unit/well), 2×PARP cocktail (1.95 mM NAD^+, 50 uM biotinylated NAD^+, and activated DNA in 50 mM Tris pH 8.0, 25 mM MgCl2) and allowed to react at 25° C. for 30 minutes. After 30 minutes, each well was rinsed with PBS four times, and in order to measure the amount of rybosylation by the PARP enzyme, strepavidin-linked peroxidase (Strep-HRP, 1:1000 diluted) was added and allowed to react at 37° C. for 30 minutes. The plate was rinsed with PBS four times, and TACS-Sapphire substrate was put and allowed to react at 25° C. for 10 minutes so that color reaction occurred. Finally, the reaction was terminated by the addition of 0.2 N HCl. The amount of histone ribosylation formed by PARP-1 enzyme was quantified at 450 nm using Wallac EnVision™ (PerkinElmer Oy, Turku, Finland).

Chain of PARP-1 enzyme (P09874 whole entry): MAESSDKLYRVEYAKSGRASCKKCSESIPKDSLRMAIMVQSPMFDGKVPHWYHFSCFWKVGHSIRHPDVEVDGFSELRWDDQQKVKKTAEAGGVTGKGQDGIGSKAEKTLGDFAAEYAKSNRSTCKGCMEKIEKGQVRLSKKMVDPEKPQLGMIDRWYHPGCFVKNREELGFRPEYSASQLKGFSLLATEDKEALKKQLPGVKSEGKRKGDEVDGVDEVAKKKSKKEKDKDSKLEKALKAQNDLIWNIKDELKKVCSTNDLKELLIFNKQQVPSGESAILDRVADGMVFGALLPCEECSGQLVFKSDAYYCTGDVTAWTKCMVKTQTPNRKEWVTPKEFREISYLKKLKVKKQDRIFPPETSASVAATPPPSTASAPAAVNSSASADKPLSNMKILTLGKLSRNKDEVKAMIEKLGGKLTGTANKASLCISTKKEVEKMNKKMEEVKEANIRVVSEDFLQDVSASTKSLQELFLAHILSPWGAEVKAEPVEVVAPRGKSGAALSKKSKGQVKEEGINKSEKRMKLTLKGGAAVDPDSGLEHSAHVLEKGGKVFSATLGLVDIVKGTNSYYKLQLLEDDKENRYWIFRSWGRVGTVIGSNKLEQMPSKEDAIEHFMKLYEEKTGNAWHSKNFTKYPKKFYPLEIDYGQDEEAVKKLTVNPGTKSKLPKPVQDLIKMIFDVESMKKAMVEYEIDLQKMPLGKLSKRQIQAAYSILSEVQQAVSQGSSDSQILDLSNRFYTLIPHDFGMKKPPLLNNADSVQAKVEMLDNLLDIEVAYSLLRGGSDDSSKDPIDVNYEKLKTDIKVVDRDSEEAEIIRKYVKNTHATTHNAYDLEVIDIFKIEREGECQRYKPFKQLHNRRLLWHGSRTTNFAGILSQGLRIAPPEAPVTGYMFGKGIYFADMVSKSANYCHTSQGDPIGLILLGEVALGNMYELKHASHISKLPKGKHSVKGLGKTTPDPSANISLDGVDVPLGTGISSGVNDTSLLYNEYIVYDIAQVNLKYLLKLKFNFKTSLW

| Compound | IC50 [nM] |
| --- | --- |
| COc1cc(CN2CCC(=NO)CC2)cc2[nH]c(=O)c3c(c12)NCCC3 [Example 79, 8-{[4-(Hydroxyimino)piperidine-1-yl]methyl}-10-methoxy-1,2,3,4-tetrahydrobenzo[h][1,6]naphthyridine-5(6H)-one trihydrochloride] | 180 |

Same assay, conditions: PARP-1 enzyme, histone ribosylation, 450 nm; read-out: PARP-1 Inhibitory activity IC50

| Compound | IC50 [nM] |
| --- | --- |
| CN(C)CCN(C)Cc1ccc2c3c(c(=O)[nH]c2c1)CCCN3 [Example 54, 8-{[(2-(Dimethylaminoethyl)(methyl)amino]methyl}-1,2,3,4-tetrahydrobenzo[h][1,6]naphthyridine-5(6H)-one trihydrochloride] | 930 |
| O=c1[nH]c2cc(CNCC(F)(F)F)ccc2c2c1CCCN2 [Example 62, 8-[(2,2,2-Trifuloroethylamino)methyl]-1,2,3,4-tetrahydrobenzo[h][1,6]naphthyridine-5(6H)-one dihydrochloride] | > 4000 |
| O=c1[nH]c2cc(Cn3ccnc3)ccc2c2c1CCCN2 [Example 64, 8-[(1H-Imidazole-1-yl)methyl]-1,2,3,4-tetrahydrobenzo[h][1,6]naphthyridine-5(6H)-one hydrochloride] | 540 |
| O=c1[nH]c2cc(Cn3cccc3)ccc2c2c1CCCN2 [Example 65, 8-[(1H-Pyrrole-1-yl)methyl]-1,2,3,4-tetrahydrobenzo[h][1,6]naphthyridine-5(6H)-one hydrochloride] | 1540 |
| O=c1[nH]c2cc(CN3CCCC3)ccc2c2c1CCCN2 [Example 67, 8-(Pyrrolidine-1-ylmethyl)-1,2,3,4-tetrahydrobenzo[h][1,6]naphthyridine-5(6H)-one dihydrochloride] | < 1000 |
| CN1CCCc2c1c1ccc(CN3CCCCC3)cc1[nH]c2=O [Example 69, 1-Methyl-8-(piperidine-1-ylmethyl)-1,2,3,4-tetrahydrobenzo[h][1,6]naphthyridine-5(6H)-one dihydrochloride] | > 4000 |
| CCN(C)Cc1cc(OC)c2c3c(c(=O)[nH]c2c1)CCCN3 [Example 76, 8-{[Ethyl(methyl)amino]methyl}-10-methoxy-1,2,3,4-tetrahydrobenzo[h][1,6]naphthyridine-5(6H)-one] | 50 |
| COc1cc(CN(C)CCCl)cc2[nH]c(=O)c3c(c12)NCCC3 [Example 85, 8-{[(2-Chloroethyl)(methyl)amino]methyl}-10-methoxy-1,2,3,4-tetrahydrobenzo[h][1,6]naphthyridine-5(6H)-one dihydrochloride] | 180 |

Same assay, conditions: dihydrochloride; read-out: PARP-1 Inhibitory activity IC50

| Compound | IC50 [nM] |
| --- | --- |
| O=c1[nH]c2cc(CN3CCCC3)ccc2c2c1CCCN2 [Example 67, 8-(Pyrrolidine-1-ylmethyl)-1,2,3,4-tetrahydrobenzo[h][1,6]naphthyridine-5(6H)-one dihydrochloride] | 760 |

Same assay, conditions: read-out: PARP-1 Inhibitory activity IC50

| Compound | IC50 [nM] |
| --- | --- |
| O=c1[nH]c2cc(CN3CCOCC3)ccc2c2c1CCCN2 [Example 49, 8-(Morpholinomethyl)-1,2,3,4-tetrahydrobenzo[h][1,6]naphthyridine-5(6H)-one dihydrochloride] | 620 |
| CN(C)Cc1ccc2[nH]c(=O)c3c(c2c1)NCCC3 [Example 50, 9-[(Dimethylamino)methyl]-1,2,3,4-tetrahydrobenzo[h][1,6]naphthyridine-5(6H)-one dihydrochloride] | 320 |
| CN(Cc1ccccc1)Cc1ccc2c3c(c(=O)[nH]c2c1)CCCN3 [Example 51, 8-{[Benzyl(methyl)amino]methyl}-1,2,3,4-tetrahydrobenzo[h][1,6]naphthyridine-5(6H)-one dihydrochloride] | 930 |
| CN1CCN(Cc2ccc3c4c(c(=O)[nH]c3c2)CCCN4)CC1 [Example 55, 8-[(4-Methylpiperazine-1-yl)methyl]-1,2,3,4-tetrahydrobenzo[h][1,6]naphthyridine-5(6H)-one trihydrochloride] | 1720 |
| CCOC(=O)CCN(C)Cc1ccc2c3c(c(=O)[nH]c2c1)CCCN3 [Example 57, Ethyl-3-{methyl[(5-oxo-1,2,3,4,5,6-hexahydrobenzo[h][1,6]naphthyridine-8-yl)methyl]amino}propanoate dihydrochloride] | 480 |
| CN(CCC(=O)O)Cc1ccc2c3c(c(=O)[nH]c2c1)CCCN3 [Example 58, 3-{Methyl[(5-oxo-1,2,3,4,5,6-hexahydrobenzo[h][1,6]naphthyridine-8-yl)methyl]amino}propanoic acid dihydrochloride] | 920 |
| CC(C)N(C)Cc1ccc2c3c(c(=O)[nH]c2c1)CCCN3 [Example 59, 8-{[Isopropyl(methyl)amino]methyl}-1,2,3,4-tetrahydrobenzo[h][1,6]naphthyridine-5(6H)-one dihydrochloride] | 190 |
| COCCN(C)Cc1ccc2c3c(c(=O)[nH]c2c1)CCCN3 [Example 60, 8-{[(2-Methoxyethyl)(methyl)amino]methyl}-1,2,3,4-tetrahydrobenzo[h][1,6]naphthyridine-5(6H)-one dihydrochloride] | 120 |
| N#CCNCc1ccc2c3c(c(=O)[nH]c2c1)CCCN3 [Example 63, 2-[(5-Oxo-1,2,3,4,5,6-hexahydrobenzo[h][1,6]naphthyridine-8-yl)methylamino]acetonitrile dihydrochloride] | 1020 |
| CCN(CC)Cc1ccc2c3c(c(=O)[nH]c2c1)CCCN3C [Example 68, 8-[(Diethylamino)methyl]-1-methyl-1,2,3,4-tetrahydrobenzo[h][1,6]naphthyridine-5(6H)-one dihydrochloride] | 1190 |
| CN1CCCc2c1c1ccc(CN3CCOCC3)cc1[nH]c2=O [Example 70, 1-Methyl-8-(morpholinomethyl)-1,2,3,4-tetrahydrobenzo[h][1,6]naphthyridine-5(6H)-one dihydrochloride] | 1090 |
| CCN(C)Cc1ccc2c3c(c(=O)[nH]c2c1)CCCN3C [Example 71, 8-{[Ethyl(methyl)amino]methyl}-1-methyl-1,2,3,4-tetrahydrobenzo[h][1,6]naphthyridine-5(6H)-one dihydrochloride] | 3000 |
| CCNCc1cc(OC)c2c3c(c(=O)[nH]c2c1)CCCN3 [Example 75, 8-[(Ethylamino)methyl]-10-methoxy-1,2,3,4-tetrahydrobenzo[h][1,6]naphthyridine-5(6H)-one dihydrochloride] | 50 |
| COc1cc(CN2CCCC2)cc2[nH]c(=O)c3c(c12)NCCC3 [Example 77, 10-Methoxy-8-(pyrrolidine-1-ylmethyl)-1,2,3,4-tetrahydrobenzo[h][1,6]naphthyridine-5(6H)-one dihydrochloride] | 50 |
| COc1cc(CN2CCC(=O)CC2)cc2[nH]c(=O)c3c(c12)NCCC3 [Example 78, 10-Methoxy-8-[(4-oxopiperidine-1-yl)methyl]-1,2,3,4-tetrahydrobenzo[h][1,6]naphthyridine-5(6H)-one dihydrochloride] | 110 |
| CON=C1CCN(Cc2cc(OC)c3c4c(c(=O)[nH]c3c2)CCCN4)CC1 [Example 80, 10-Methoxy-8-[(4-(methoxyimino)piperidine-1-yl)methyl]-1,2,3,4-tetrahydrobenzo[h][1,6]naphthyridine-5(6H)-one trihydrochloride] | 140 |
| COCCN(C)Cc1cc(OC)c2c3c(c(=O)[nH]c2c1)CCCN3 [Example 81, 10-Methoxy-8-{[(2-methoxyethyl)(methyl)amino]methyl}-1,2,3,4-tetrahydrobenzo[h][1,6]naphthyridine-5(6H)-one dihydrochloride] | 110 |
| COc1cc(CN2CC=CC2)cc2[nH]c(=O)c3c(c12)NCCC3 [Example 82, 8-[(2,5-Dihydro-1H-pyrrole-1-yl)methyl]-10-methoxy-1,2,3,4-tetrahydrobenzo[h][1,6]naphthyridine-5(6H)-one dihydrochloride] | 60 |
| COc1cc(CN(C)CCOC(C)C)cc2[nH]c(=O)c3c(c12)NCCC3 [Example 83, 8-{[(2-Isopropoxyethyl)(methyl)amino]methyl}-10-methoxy-1,2,3,4-tetrahydrobenzo[h][1,6]naphthyridine-5(6H)-one dihydrochloride] | 320 |
| COc1cc(CN2CCCCC2)cc2[nH]c(=O)c3c(c12)NCCC3 [Example 84, 10-Methoxy-8-(piperidine-1-ylmethyl)-1,2,3,4-tetrahydrobenzo[h][1,6]naphthyridine-5(6H)-one dihydrochloride] | 150 |
| CCN(CC)Cc1cc(OC)c2c3c(c(=O)[nH]c2c1)CCCN3 [Example 86, 8-[(Diethylamino)methyl]-10-methoxy-1,2,3,4-tetrahydrobenzo[h][1,6]naphthyridine-5(6H)-one dihydrochloride] | 110 |
| COc1cc(CNC(C)C)cc2[nH]c(=O)c3c(c12)NCCC3 [Example 88, 8-[(Isopropylamino)methyl]-10-methoxy-1,2,3,4-tetrahydrobenzo[h][1,6]naphthyridine-5 (6H)-one dihydrochloride] | 110 |
| COc1cc(CNC2CCCC2)cc2[nH]c(=O)c3c(c12)NCCC3 [Example 89, 8-[(Cyclopentylamino)methyl]-10-methoxy-1,2,3,4-tetrahydrobenzo[h][1,6]naphthyridine-5(6H)-one dihydrochloride] | 270 |
